# Laboratory results as given in article PMC12136037, “Type II kinase inhibitors that target Parkinson’s disease–associated LRRK2” (Science Advances, 2025).
# Several values for one entry are separate records, joined by “and”; a condition that tells them apart may be missing. Equal entries are not always repeated.
# Target: T1, LRRK2 (Homo sapiens, UniProt Q5S007)
# T1 construct: wild-type full-length LRRK2 (pcDNA5-LRRK2, RRID: Addgene_229019)
# Assay: Western blot of Rab8a phosphorylation (pT72) in 293T cells transfected with wild-type LRRK2 and GFP-Rab8a
# Assay type: cell-based
# Conditions: for toxicity / effect on phosphorylation of Rab8a in cells: 293T cells; for toxicity: any of the concentrations used; for effect on phosphorylation of Rab8a in cells: increasing concentrations
# Method: For all in cell kinase assays, after 48 hours, transfected cells were treated with either DMSO (control) or the indicated inhibitors for 4 hours at 37°C and 5% CO2. Following treatments, cells were washed three times with ice cold PBS. Cells were then lysed in ice cold radioimmunoprecipitation assay (RIPA) lysis buffer [50 mM tris (pH 8.0), 150 mM NaCl, 1% Triton X-100, 0.1% SDS, 0.5% sodium deoxycholate, and 1 mM DTT] in the presence of complete mini EASYpack protease inhibitor cocktail and the PhosSTOP EASYpack phosphatase inhibitor cocktail (Roche). Resuspended and lysed cells were clarified by centrifugation at 13,000g for 15 min at 4°C. […] The membrane was blocked in 5% milk in 1× Tris-buffered saline (TBS) [20 mM tris (pH 8.0) and 150 mM NaCl] for 1 hour shaking at room temperature. […] Membranes were then washed three times in 1× TBS-T before imaging on Li-COR Odyssey CLx controlled by Imaging Studio software (www.licorbio.com/image-studio, RRID:SCR_015795). […] The signal intensity of each band was assessed using the Analyze>Gels tool. The band intensity for phosphorylated LRRK2 was measured and compared to total LRRK2 levels (run under identical conditions on a separate gel). Band intensity for phosphorylated Rab7 or Rab8a was measured and compared against total GFP-Rab7 or GFP-Rab8a (using anti-GFP antibody) and LRRK1/LRRK2 levels as appropriate. Comparative statistical analysis of phosphorylation levels was analyzed using a one-way analysis of variance (ANOVA) and corrected using Tukey’s multiple comparisons test in GraphPad Prism 10 (www.graphpad.com/, RRID:SCR_002798).
# [1] = GFP-11 tagged WT LRRK2, 5 μM, 4 replicates
# T1 sequence (Q5S007 whole entry): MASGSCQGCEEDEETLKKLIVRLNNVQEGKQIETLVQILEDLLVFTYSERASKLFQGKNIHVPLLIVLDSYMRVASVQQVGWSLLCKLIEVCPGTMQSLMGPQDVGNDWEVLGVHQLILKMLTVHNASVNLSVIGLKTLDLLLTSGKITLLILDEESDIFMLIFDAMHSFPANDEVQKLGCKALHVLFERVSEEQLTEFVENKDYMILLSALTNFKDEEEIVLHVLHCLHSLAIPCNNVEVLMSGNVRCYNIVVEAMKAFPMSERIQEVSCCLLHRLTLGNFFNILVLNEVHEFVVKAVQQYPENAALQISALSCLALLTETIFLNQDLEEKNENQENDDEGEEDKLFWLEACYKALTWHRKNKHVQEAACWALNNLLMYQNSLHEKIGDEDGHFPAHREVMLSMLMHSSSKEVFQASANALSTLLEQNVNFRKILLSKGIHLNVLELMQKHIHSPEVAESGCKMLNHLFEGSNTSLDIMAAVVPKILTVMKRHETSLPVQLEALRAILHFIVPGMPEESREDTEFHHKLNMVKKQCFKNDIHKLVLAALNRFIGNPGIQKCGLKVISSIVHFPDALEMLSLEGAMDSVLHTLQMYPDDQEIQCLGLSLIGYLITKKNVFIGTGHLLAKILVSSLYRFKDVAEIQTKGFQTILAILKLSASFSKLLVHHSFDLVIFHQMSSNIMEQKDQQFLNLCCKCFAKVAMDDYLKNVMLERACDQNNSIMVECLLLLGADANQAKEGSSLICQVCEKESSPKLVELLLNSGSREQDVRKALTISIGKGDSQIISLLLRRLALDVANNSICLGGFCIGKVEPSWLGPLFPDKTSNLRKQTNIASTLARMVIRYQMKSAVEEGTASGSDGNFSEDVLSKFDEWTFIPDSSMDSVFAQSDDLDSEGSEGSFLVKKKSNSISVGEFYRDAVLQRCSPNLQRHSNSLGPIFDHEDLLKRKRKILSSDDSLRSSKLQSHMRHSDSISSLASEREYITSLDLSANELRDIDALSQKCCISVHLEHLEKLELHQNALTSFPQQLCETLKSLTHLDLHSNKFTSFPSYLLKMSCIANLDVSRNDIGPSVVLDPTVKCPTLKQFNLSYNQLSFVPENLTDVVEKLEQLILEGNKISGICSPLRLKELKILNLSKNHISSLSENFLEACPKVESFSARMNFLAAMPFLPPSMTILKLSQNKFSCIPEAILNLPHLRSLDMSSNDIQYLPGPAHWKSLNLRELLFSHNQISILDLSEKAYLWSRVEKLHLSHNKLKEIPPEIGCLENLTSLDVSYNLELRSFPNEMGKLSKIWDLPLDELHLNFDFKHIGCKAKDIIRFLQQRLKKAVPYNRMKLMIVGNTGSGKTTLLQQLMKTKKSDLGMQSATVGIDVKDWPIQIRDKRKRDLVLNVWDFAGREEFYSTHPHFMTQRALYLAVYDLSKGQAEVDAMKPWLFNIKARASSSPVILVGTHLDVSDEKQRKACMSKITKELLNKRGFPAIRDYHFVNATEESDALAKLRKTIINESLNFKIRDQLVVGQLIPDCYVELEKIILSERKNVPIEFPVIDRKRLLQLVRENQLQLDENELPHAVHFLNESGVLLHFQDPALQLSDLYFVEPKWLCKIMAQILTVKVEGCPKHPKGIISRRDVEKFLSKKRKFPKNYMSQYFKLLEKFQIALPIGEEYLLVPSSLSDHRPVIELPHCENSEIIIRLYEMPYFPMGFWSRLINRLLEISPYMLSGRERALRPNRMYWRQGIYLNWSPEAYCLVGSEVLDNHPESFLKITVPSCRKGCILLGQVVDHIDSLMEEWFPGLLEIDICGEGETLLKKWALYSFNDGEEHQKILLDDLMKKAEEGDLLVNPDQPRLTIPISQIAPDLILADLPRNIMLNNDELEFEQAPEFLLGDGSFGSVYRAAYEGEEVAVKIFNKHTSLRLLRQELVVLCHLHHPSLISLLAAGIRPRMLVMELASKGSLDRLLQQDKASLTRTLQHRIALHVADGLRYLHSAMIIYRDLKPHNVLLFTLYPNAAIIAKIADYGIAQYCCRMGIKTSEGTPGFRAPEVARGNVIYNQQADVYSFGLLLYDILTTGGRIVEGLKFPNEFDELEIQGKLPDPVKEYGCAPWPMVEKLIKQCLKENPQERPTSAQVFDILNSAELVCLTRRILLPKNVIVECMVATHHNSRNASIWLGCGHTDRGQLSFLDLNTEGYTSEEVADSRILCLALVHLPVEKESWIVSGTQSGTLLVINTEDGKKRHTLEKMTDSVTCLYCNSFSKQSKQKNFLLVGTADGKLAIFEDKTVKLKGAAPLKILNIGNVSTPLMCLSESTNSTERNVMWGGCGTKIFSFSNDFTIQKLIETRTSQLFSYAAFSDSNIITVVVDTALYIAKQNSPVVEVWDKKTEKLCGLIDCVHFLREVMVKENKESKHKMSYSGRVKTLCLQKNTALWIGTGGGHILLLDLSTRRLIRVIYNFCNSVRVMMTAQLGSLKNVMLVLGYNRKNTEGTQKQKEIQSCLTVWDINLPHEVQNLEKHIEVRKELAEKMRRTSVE
Structure (SMILES),"pRab8/Rab8/LRRK2 normalized to DMSO, Mean (250 nM, 4 h, 3 replicates)","pRab8/Rab8/LRRK2 normalized to DMSO, Mean (500 nM, 4 h, 3 replicates)","pRab8/Rab8/LRRK2 normalized to DMSO, Mean (1 μM, 4 h, 3 replicates)","pRab8/Rab8/LRRK2 normalized to DMSO, Mean (5 μM, 4 h, 3 replicates)","pRab8/Rab8/LRRK2 normalized to DMSO, Mean (10 μM, 4 h, 3 replicates)",toxicity,effect on phosphorylation of Rab8a in cells,"pRab8/Rab8/LRRK2 normalized to DMSO, Mean [1]",also measured
Cc1ccc(-n2nc(C(C)(C)C)cc2NC(=O)Nc2cccc(-c3c[nH]c4nc(Cl)nc(N5CCOCC5)c34)c2)cc1 [Compound 30],1.123,0.8664,0.8611,0.2926,0.2543,Toxicity did not appear to be an issue,reduced phosphorylation of Rab8a in a dose-dependent manner,0.2436,"pRab8/Rab8/LRRK2 normalized to DMSO (250 nM, 4 h, individual Western blots, listed as 277): 1.0545 and 1.033 and 1.2826; pRab8/Rab8/LRRK2 normalized to DMSO (500 nM, 4 h, individual Western blots, listed as 277): 0.8279 and 0.7001 and 1.071; pRab8/Rab8/LRRK2 normalized to DMSO (1 μM, 4 h, individual Western blots, listed as 277): 0.8817 and 0.6143 and 1.087; pRab8/Rab8/LRRK2 normalized to DMSO (5 μM, 4 h, individual Western blots, listed as 277): 0.3266 and 0.2385 and 0.3127; pRab8/Rab8/LRRK2 normalized to DMSO (10 μM, 4 h, individual Western blots, listed as 277): 0.2723 and 0.2085 and 0.282; pRab8/Rab8/LRRK2 normalized to DMSO (GFP-11 tagged WT LRRK2, 5 μM, individual blots, normalized to WT DMSO, listed as RN277): 0.1001 and 0.2331 and 0.598 and 0.04303"
CCSc1nc(NC)c2c(-c3cccc(NC(=O)Nc4cc(C(C)(C)C)nn4-c4ccc(C)cc4)c3)c[nH]c2n1 [Compound 32],1.109,0.9957,0.8556,0.5047,0.408,Toxicity did not appear to be an issue,reduced phosphorylation of Rab8a in a dose-dependent manner,0.2782,"pRab8/Rab8/LRRK2 normalized to DMSO (250 nM, 4 h, individual Western blots, listed as 341): 1.128 and 0.9817 and 1.217; pRab8/Rab8/LRRK2 normalized to DMSO (500 nM, 4 h, individual Western blots, listed as 341): 1.05 and 0.7587 and 1.178; pRab8/Rab8/LRRK2 normalized to DMSO (1 μM, 4 h, individual Western blots, listed as 341): 0.8182 and 0.7772 and 0.9713; pRab8/Rab8/LRRK2 normalized to DMSO (5 μM, 4 h, individual Western blots, listed as 341): 0.5692 and 0.3629 and 0.5821; pRab8/Rab8/LRRK2 normalized to DMSO (10 μM, 4 h, individual Western blots, listed as 341): 0.4385 and 0.2564 and 0.5293; pRab8/Rab8/LRRK2 normalized to DMSO (GFP-11 tagged WT LRRK2, 5 μM, individual blots, normalized to WT DMSO, listed as RN341): 0.1752 and 0.6963 and 0.1155 and 0.1257"
"Cc1ccc(C(=O)Nc2ccc(CN3CCN(C)CC3)c(C(F)(F)F)c2)cc1C#Cc1cnc2cccnn12 [Ponatinib, reference compound]",–,–,–,0.2682,–,–,–,–,"pRab8/Rab8/LRRK2 normalized to DMSO (5 μM, 4 h, individual Western blots): 0.2608 and 0.2643 and 0.2795"
